Article PMC2711991 (Cancer research, 2009)
Structures can show the parent of a compound that is named as a salt.

Tests used:
Assay type in all cases: cell-based
ABCG2 [1] = biological target: T1, ABCG2 (Homo sapiens, UniProt Q9UNQ0); assay: BLI D-luciferin efflux inhibition in HEK293/ABCG2/fLuc cells
T1 sequence (Q9UNQ0 1-655): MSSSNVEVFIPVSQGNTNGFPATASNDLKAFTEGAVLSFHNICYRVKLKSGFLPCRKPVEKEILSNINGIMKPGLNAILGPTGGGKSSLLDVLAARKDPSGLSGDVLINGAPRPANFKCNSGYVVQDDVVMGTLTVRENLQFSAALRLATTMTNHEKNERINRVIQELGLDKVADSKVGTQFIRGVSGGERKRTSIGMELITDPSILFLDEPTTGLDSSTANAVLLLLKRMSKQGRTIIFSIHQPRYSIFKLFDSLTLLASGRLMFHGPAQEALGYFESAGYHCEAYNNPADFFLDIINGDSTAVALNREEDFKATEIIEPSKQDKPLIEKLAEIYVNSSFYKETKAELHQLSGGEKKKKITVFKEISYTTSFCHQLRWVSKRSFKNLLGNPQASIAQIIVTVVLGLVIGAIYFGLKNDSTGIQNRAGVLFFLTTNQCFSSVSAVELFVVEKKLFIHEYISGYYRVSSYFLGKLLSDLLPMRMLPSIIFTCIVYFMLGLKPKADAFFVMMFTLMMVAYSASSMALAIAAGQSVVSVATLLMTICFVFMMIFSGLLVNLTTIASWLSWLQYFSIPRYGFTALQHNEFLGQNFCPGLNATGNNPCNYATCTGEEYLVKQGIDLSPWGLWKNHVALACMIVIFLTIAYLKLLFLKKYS

ABCG2 [2] = biological target: T1, ABCG2
ABCG2 [3] = biological target: T1, ABCG2; assay: BODIPY-prazosin uptake in HEK293/ABCG2 cells at […]

Q: With `COc1cc(N)c(Cl)cc1C(=O)NC1CCN(Cc2ccccc2)CC1` [clebopride maleate] as the compound, how does the IC50 (ABCG2 [1]) read?
A: Its IC50 is roughly 8.2 µM.

Q: `COc1cc2nc(N3CCN(C(=O)C4COc5ccccc5O4)CC3)nc(N)c2cc1OC` (centres unmarked) [doxazosin mesylate] was tested. Which IC50 (ABCG2 [1]) did it give?
A: Its IC50 is roughly 8 µM.

Q: How did the IC50 (ABCG2 [1]) turn out when `Cc1c(-c2ccccc2)oc2c(C(=O)OCCN3CCCCC3)cccc2c1=O` [flavoxate hydrochloride] was run?
A: Its IC50 is roughly 20 µM.

Q: How did the “BODIPY-prazosin uptake in HEK293/ABCG2 cells at 20 μM; BLI 6.1-fold enhancement;” value (ABCG2 [2]) turn out when `CC(C)C(=O)Nc1ccc([N+](=O)[O-])c(C(F)(F)F)c1` [flutamide] was run?
A: The value was “flutamide|Y|Y”.

Q: `C=C(C)[C@H]1Cc2c(ccc3c2O[C@@H]2COc4cc(OC)c(OC)cc4[C@@H]2C3=O)O1` [rotenone] was tested. Which “BODIPY-prazosin uptake in HEK293/ABCG2 cells at 20 μM; BLI 6.7-fold enhancement;” value (ABCG2 [3]) did it give?
A: Its value is “rotenone|Y|Y”.
